# Columns and labels:
# [1] = target: T1, IDH2/R140Q (Homo sapiens, UniProt P48735, R140Q); test: Inhibition of mutant IDH2 activity at the cell level (extracellular 2-HG, U87MG overexpressing IDH2/R140Q); type: cell-based
# T1 sequence (P48735 40-452 R140Q): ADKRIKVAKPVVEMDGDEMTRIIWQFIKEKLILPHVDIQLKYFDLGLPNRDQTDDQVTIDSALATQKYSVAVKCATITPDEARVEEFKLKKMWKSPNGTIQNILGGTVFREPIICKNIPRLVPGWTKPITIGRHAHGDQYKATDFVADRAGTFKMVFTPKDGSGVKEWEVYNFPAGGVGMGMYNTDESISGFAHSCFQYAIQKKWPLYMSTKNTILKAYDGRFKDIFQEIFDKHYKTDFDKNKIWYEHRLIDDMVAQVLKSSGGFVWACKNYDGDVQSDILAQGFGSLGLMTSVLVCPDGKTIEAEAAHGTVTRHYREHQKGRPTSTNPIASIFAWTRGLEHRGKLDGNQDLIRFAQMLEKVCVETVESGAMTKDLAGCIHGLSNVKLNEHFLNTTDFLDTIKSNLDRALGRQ
# Method: 2-hydroxyglutarate dehydrogenase (2HGDH) can reduce NAD+ to NADH in the presence of 2-HG. The latter can be quantitatively detected by diaphorase and its substrate Resazurin.
# The glioma cells U87MG overexpressing IDH2/R140Q mutation were cultured in 1% sodium pyruvate high-sugar MEM, 10% FBS, and placed in a CO2 incubator (37° C., 5% CO2, 95% air) for cultivation.
# The cells were digested with trypsin and seeded in a 96-well plate at a density of 1×10^4 with a medium of 200 μL and cultured in a 37° C. incubator overnight. The next day, the test compound was added to a final concentration of 0.1% for DMSO. […] The protein and other components in the medium that may interfere with the results were filtered, and the follow-up method was used to detect the content of 2-HG. 50 uL CellTiter-Glo (purchased from Promega) was added to the 96-well plate with the remaining 100 μL of medium to detect cell survival;
# Extracellular 2-HG detecting system:
# (1) 50 μL reaction system: reaction buffer (50 mM Tris pH7.5, 100 mM NaCl, 20 mM MgCl2, 0.05% BSA), in which the final concentration of NAD+ was 40 μM, the final concentration of 2HGDH was 20 nM, and the test sample was added to 5 μL of medium; the reaction solution was mixed and centrifuged, and the reaction was carried out for 1 hour at 25° C. in the dark;
# Preparation of 2-HG standard curve: a 2-HG stock solution was diluted to 20 μM with reaction buffer, and a 2-fold gradient diluting was performed for a total of 6 points. Afterwards, the above-mentioned 2-HG was measured according to the extracellular 2-HG detecting system, and a standard curve was calculated and drawn.
# Calculation of extracellular 2-HG content:
# The fluorescence value obtained in the extracellular 2-HG detecting system was calculated using the 2-HG standard curve to calculate the content of 2-HG in the medium, and DMSO was used as a negative control to calculate the compound's inhibition against IDH2/R140Q mutation producing 2-HG activity.
# [2] = target: T1, IDH2/R140Q; test: Determination of the inhibitory activity of the compounds on IDH2/R140Q (NADPH reduction, resazurin/lipoamide dehydrogenase detection); type: biochemical; parameters: purchased Abcam ab198153
# Method: In this example, the inhibitory activity of a compound on IDH2/R140Q was determined by measuring the reduction of the cofactor NADPH. The compound was incubated with IDH2/R140Q and NADPH, and then the reaction was initiated by adding α-KG. After a certain time of reaction under linear conditions, lipoamide dehydrogenase and the corresponding substrate resazurin were added for detection. Lipoamide dehydrogenase terminated the IDH2/R140Q reaction bγ subtracting the available cofactor NADPH. It oxidized NADPH to NADP, and reduced resazurin to highly fluorescent resorufin. The production of resorufin was detected to quantify the amount of cofactor NADPH remaining after a specific reaction time.
# Then 25 μL of a stop mixed solution (lipoamide dehydrogenase 36 μg/mL, resazurin 30 μM) prepared with the above reaction buffer was added to convert resazurin to resorufin to measure the remaining NADPH. After 10 minutes of incubation at 25° C., the fluorescence value was measured by Tecan […] […] The enzyme activity was measured at 10 concentrations for each compound, and multiple background holes without enzyme and full enzyme activity holes without compound were set up in the reaction. The concentration of dimethyl sulfoxide in the system was less than or equal to 2%. […] The multi-well plate in this example was purchased from Thermo Fisher Scientific, NADPH, α-KG, lipoamide dehydrogenase, and resazurin were purchased from Shenggong Bioengineering Co., Ltd., and IDH2/R140Q was purchased from Abcam (ab198153).
# [3] = U87MG overexpressing IDH2/R140Q, 2-HG in medium after 24 hours of culturing with compound, read-out: IC50
# [4] = IDH2/R140Q inhibitory activity, pre-incubated at 25° C. for 16 hours, read-out: IC50
# [5] = IDH2/R140Q inhibitory activity, cells marked (1 h), read-out: IC50
SMILES,"IC50 [1, 3] [µM]","IC50 [2, 4] [µM]",other results
"c1ccc(Nc2nc(-c3ccccc3)nc3[nH]ccc23)cc1 [Compound 19, N,2-diphenyl-7H-pyrrolo[2,3-d]pyrimidin-4-amine]",> 10,> 10,–
"Cc1cc2c(NC3CCCCC3)nc(-c3ccccc3)nc2[nH]1 [Compound 37, N-cyclohexyl-6-methyl-2-phenyl-7H-pyrrolo[2,3-d]pyrimidin-4-amine]",1 to 10,1 to 10,–
"Cc1cc2c(-c3ccccc3)nc(NC(C)C)nc2[nH]1 [Compound 40, N-isopropyl-6-methyl-4-phenyl-7H-pyrrolo[2,3-d]pyrimidin-2-amine]",> 10,> 10,–
"CC(C)n1cnc2c(Nc3ccnc(C(F)(F)F)c3)nc(-c3cccc(C(F)(F)F)n3)nc21 [Compound 4, 9-isopropyl-2-(6-(trifluoromethyl)pyridin-2-yl)-N-(2-(trifluoromethyl)pyridin-4-yl)-9H-purine-6-amine]",> 10,–,"IC50 [2, 5]: > 10 µM"
"Cc1cc2c(Nc3ccccc3)nc(-c3ccccc3)nc2[nH]1 [Compound 8, 6-methyl-N,2-diphenyl-7H-pyrrolo[2,3-d]pyrimidin-4-amine]",1 to 10,0.1 to 1,–
"CC(C)Nc1nc(-c2ccccc2)nc2[nH]ccc12 [Compound 32, N-isopropyl-2-phenyl-7H-pyrrolo[2,3-d]pyrimidin-4-amine]",–,> 10,–
"CC(C)n1cnc2c(Nc3ccnc(C(F)(F)F)c3)nc(-c3ccccn3)nc21 [Compound 10, 9-isopropyl-2-(pyridin-2-yl)-N-(2-(trifluoromethyl)pyridin-4-yl)-9H-purin-6-amine]",> 10,–,"IC50 [2, 5]: > 10 µM"
"Cc1cc2c(Nc3ccccc3)nc(-c3ccccc3F)nc2[nH]1 [Compound 50, 2-(2-fluorophenyl)-6-methyl-N-phenyl-7H-pyrrolo[2,3-d]pyrimidin-4-amine]",0.1 to 1,0.1 to 1,–
"Cn1ccc2c(Nc3ccccc3)nc(-c3ccccc3)nc21 [Compound 11, 7-methyl-N,2-diphenyl-7H-pyrrolo[2,3-d]pyrimidin-4-amine]",–,–,"IC50 [2, 5]: > 10 µM"
"Cc1cc2c(NCC(C)C)nc(-c3ccccc3)nc2[nH]1 [Compound 39, N-isobutyl-6-methyl-2-phenyl-7H-pyrrolo[2,3-d]pyrimidin-4-amine]",0.1 to 1,0.1 to 1,–
"Cc1cc2c(NC(C)C)nc(-c3cccnc3)nc2[nH]1 [Compound 17, N-isopropyl-6-methyl-2-(pyridin-3-yl)-7H-pyrrolo[2,3-d]pyrimidin-4-amine]",> 10,> 10,–
"COc1ccccc1Nc1nc(-c2ccccc2)nc2c1ncn2C(C)C [Compound 2, 9-isopropyl-N-(2-methoxyphenyl)-2-phenyl-9H-purin-6-amine]",–,–,"IC50 [2, 5]: > 10 µM"
"c1ccc(Nc2nc(-c3ccccc3)nc3[nH]cnc23)cc1 [Compound 6, N,2-diphenyl-9H-purin-6-amine]",> 10,–,"IC50 [2, 5]: > 10 µM"
"CC(C)n1cnc2c(-c3ccccc3)nc(Nc3ccccc3)nc21 [Compound 12, 9-isopropyl-N,6-diphenyl-9H-purin-2-amine]",> 10,–,"IC50 [2, 5]: > 10 µM"
"Cc1cc2c(Nc3ccnc(F)c3)nc(-c3ccccc3)nc2[nH]1 [Compound 21, N-(2-fluoropyridin-4-yl)-6-methyl-2-phenyl-7H-pyrrolo[2,3-d]pyrimidin-4-amine]",1 to 10,> 10,–
"Cc1cc2c(NC3CCCC3)nc(-c3ccccc3F)nc2[nH]1 [Compound 51, N-cyclopentyl-2-(2-fluorophenyl)-6-methyl-7H-pyrrolo[2,3-d]pyrimidin-4-amine]",< 0.1,< 0.1,–

SMILES,"IC50 [1, 3] [µM]","IC50 [2, 4] [µM]",other results
"CC(C)n1cnc2c(Nc3ccnc(C(F)(F)F)c3)nc(-c3ccncc3)nc21 [Compound 9, 9-isopropyl-2-(pyridin-4-yl)-N-(2-(trifluoromethyl)pyridin-4-yl)-9H-purin-6-amine]",> 10,–,"IC50 [2, 5]: > 10 µM"
"Cc1cc2c(Nc3cccc(F)c3)nc(-c3ccccc3)nc2[nH]1 [Compound 31, N-(3-fluorophenyl)-6-methyl-2-phenyl-7H-pyrrolo[2,3-d]pyrimidin-4-amine]",1 to 10,1 to 10,–
"Cc1cc2c(NC3CC3)nc(-c3ccc(F)cc3)nc2[nH]1 [Compound 38, N-cyclopropyl-2-(4-fluorophenyl)-6-methyl-7H-pyrrolo[2,3-d]pyrimidin-4-amine]",1 to 10,1 to 10,–
"Cc1cc2c(NC3CC3)nc(-c3ccc4ccccc4c3)nc2[nH]1 [Compound 15, N-cyclopropyl-6-methyl-2-(naphthalene-2-yl)-7H-pyrrolo[2,3-d]pyrimidin-4-amine]",–,> 10,–
"CC(C)n1cnc2c(Nc3ccnc(C(F)(F)F)c3)nc(-c3ccccc3)nc21 [Compound 3, 9-isopropyl-2-phenyl-N-(2-(trifluoromethyl)pyridin-4-yl)-9H-purin-6-amine]",> 10,–,"IC50 [2, 5]: > 10 µM"
"Cc1cc2c(NCc3ccccc3)nc(-c3ccccc3)nc2[nH]1 [Compound 30, N-benzyl-6-methyl-2-phenyl-7H-pyrrolo[2,3-d]pyrimidin-4-amine]",–,> 10,–
"Cc1cc2c(NC3CC3)nc(-c3cccc(F)c3)nc2[nH]1 [Compound 34, N-cyclopropyl-2-(3-fluorophenyl)-6-methyl-7H-pyrrolo[2,3-d]pyrimidin-4-amine]",0.1 to 1,1 to 10,–
"Cc1cc2c(-c3ccccc3)nc(Nc3ccccc3)nc2[nH]1 [Compound 7, 6-methyl-N,4-diphenyl-7H-pyrrolo[2,3-d]pyrimidin-2-amine]",1 to 10,1 to 10,–
"Cc1cc2c(NC(C)C)nc(-c3ccccc3)nc2[nH]1 [Compound 13, N-isopropyl-6-methyl-2-phenyl-7H-pyrrolo[2,3-d]pyrimidin-4-amine]",0.1 to 1,0.1 to 1,–
"CC(C)(O)CNc1nc(Nc2ccnc(C(F)(F)F)c2)nc(-c2cccc(C(F)(F)F)n2)n1 [AG-221, Enasidenib, reference compound]",–,–,IC50 [1]: < 0.1 µM; IC50 [2]: < 0.1 µM
"Cc1cc2c(NCC(C)(C)O)nc(-c3ccccc3)nc2[nH]1 [Compound 35, 2-methyl-1-((6-methyl-2-phenyl-7H-pyrrolo[2,3-d]pyrimidin-4-yl)amino)propan-2-ol]",–,> 10,–
"CC(C)Nc1nc(-c2ccccc2)nc2[nH]c(Br)cc12 [Compound 33, 6-bromo-N-isopropyl-2-phenyl-7H-pyrrolo[2,3-d]pyrimidin-4-amine]",–,> 10,–
"Cc1cc2c(-c3ccccc3)nc(-c3ccccc3)nc2[nH]1 [Compound 26, 6-methyl-2,4-diphenyl-7H-pyrrolo[2,3-d]pyrimidine]",–,> 10,–
"Cc1cc2c(NC(C)(C)C)nc(-c3ccccc3)nc2[nH]1 [Compound 27, N-(tert-butyl)-6-methyl-2-phenyl-7H-pyrrolo[2,3-d]pyrimidin-4-amine]",–,> 10,–
"CC(C)n1cnc2c(Nc3ccccc3)nc(-c3ccccc3)nc21 [Compound 1, 9-isopropyl-N,2-diphenyl-9H-purin-6-amine]",–,–,"IC50 [2, 5]: > 10 µM"

# — patent US20220204509A1, “PYRIMIDO FIVE-MEMBERED HETEROCYCLIC COMPOUND AND USE THEREOF AS MUTANT IDH2 INHIBITOR” (EPITAS BIOSCIENCES (SHANGHAI) CO., LTD., priority 2019, published 2022)
